Reference: patent US20210052492A1, “Cannabinoid Dosing Regime For Psoriasis” (Botanix Pharmaceuticals Ltd., priority 2018, published 2021)

Assay: Skin permeation of CBD in a Franz-type diffusion cell
Type: in vitro ADME
Details: 5 ul of 5.0% w/w CBD formulation, 48-hour exposure
Procedure: Dermatomed skin from a single donor was mounted in a Franz-type diffusion cell (0.55 cm^2 receptor fluid exposure surface area) and dosed with 5 ul of CBD formulated in an mixture of a volatile solvent (hexylmethyldisiloxane/polymethylsiloxane—93% w/w), and residual solvent (arlamol E—2% w/w) at a concentration of 5.0% (w/w; 35.5 mg/ml). Following dosing, receptor phase samples were collected at 4, 10, 24 and 48 hours; after which the study was terminated.
The residual formulation was removed by tape stripping and the epidermis and dermis separated by blunt dissection. The levels of CBD in the epidermis, dermis, and receptor fluid samples were then analyzed using a bioanalytical method with LC-MS/MS detection.

With `C=C(C)C1CCC(C)=CC1c1c(O)cc(CCCCC)cc1O` (centres unmarked) [CBD, 2-[3-methyl-6-(1-methylethenyl)-2-cyclohexen-1-yl]-5-pentyl-1,3-benzenediol] the “skin permeation through to the receptor phase, % of applied dose” value was “less than 0.081%” and the “skin permeation, amount in the receptor phase” value was < 278 ng/cm^2.
